Test results from paper PMC10386886, “First-in-class multifunctional TYMS nonclassical antifolate inhibitor with potent in vivo activity that prolongs survival” (JCI Insight, 2023).

Columns and labels:
PANC-1 cells = experiment: MTS viability assay, PANC-1; assay type: cell-based; settings: Homo sapiens, 72-hour drug incubation, Figure 1C
MIA PaCa-2 cells = experiment: MTS viability assay, MIA PaCa-2; assay type: cell-based; settings: Homo sapiens, 72-hour drug incubation, Figure 1C
Experimental: (§1) Cells were harvested after 72 hours, and cell pellets were stored at –80°C. […] After 72 hours, cell viability was assessed by reduction of MTS using Cell Titer 96 R Aqueous One Solution Cell Proliferation Assay Kit (Promega, catalog G8081), following manufacturer’s recommendations. […] was measured on a SpectraMax M3 (Molecular Devices). Data were plotted in GraphPad Prism 9 to determine GI50 concentration. Chemical synthesis details, including characterization of each compound, can be found in the Supplemental section associated with this publication.

CM cells = experiment: MTS viability assay, CM; assay type: cell-based; settings: 72-hour drug incubation, Figure 1C
BON cells = experiment: MTS viability assay, BON; assay type: cell-based; settings: 72-hour drug incubation, Figure 1C
[1] = tested on: H1048 small cell lung cancer cell line; experiment: Viability assay, H1048; assay type: cell-based; settings: Homo sapiens, NCI-H1048; Supplemental Figure 1B
Experimental: H1048, Colo320, H630 and CCD18Co cells were purchased from ATCC. Cells were grown in RPMI
1640 supplemented with 5 U/ml Penicillin/Streptomycin and 10% fetal bovine serum at a constant
temperature of 37 °C in a humidified atmosphere of 5% carbon dioxide and were routinely tested for
mycoplasma contamination.
For GI50 determination, 3000 Colo320, H630 and CCD18Co cells per well were plated in 96 well plates
hours, cell viability was assessed by reduction of MTT (3-(4,5- dimethylthiazol-2-yl)-2,5-diphenyltetrazolium bromide) using MTT Reagent (Invitrogen, Cat # M6494), following manufacturer’s
recommendations. Chemiluminescent output (integration time 1000 ms) was measured on a
SpectraMax M3 (Molecular Devices). Data was plotted in GraphPad Prism 9 to determine GI50

TYMS [2] = experiment: Immunoblot of TYMS levels in treated PANC-1 cells; assay type: cell-based; settings: PANC-1, 72 hours, Figure 1D
Experimental: as §1
A total of 20 μg of total protein lysate was loaded per lane of 10% Tris Glycine Gel (Invitrogen, catalog EC6076). SDS-PAGE was run at 150 V for 1.5 to 2 hours. Proteins were transferred to nitrocellulose membranes using iBlot (Invitrogen, catalog IB3011002). Membranes were blocked with 5% nonfat dry milk (Lab Scientific, catalog M0841) in Tris-buffered saline supplemented with Tween 20 (0.1%) (TBS-T) for 45–60 minutes at room temperature (RT). […] Signal was detected using West Pico Plus chemiluminescence substrate (Thermo Fisher Scientific, catalog 34580) following manufacturer’s recommendations. […] For protein-level quantification relative to loading control, densitometric analysis was performed by ImageJ software (NIH).

[3] = tested on: PANC-1 and MIA PaCa-2 cells; experiment: Cell count assay for acquired resistance; assay type: cell-based; settings: constant 10 μM
Experimental: 500000 PANC-1 and MiaPaCa- 2 cells were plated in 75 cm2 flasks in DMEM high glucose
supplemented with 5 U/ml Penicillin/Streptomycin and 10% fetal bovine serum. Cells were treated with
Once a week for 7 weeks, cells were trypsinized with Trypsin-
EDTA 0.05% (Gibco) and counted using Cellometer Auto T4 (Nexcelom Bioscience). 500000 cells were
re-seeded in a new 75 cm2 flask in the appropriate treatment. Data was plotted in GraphPad Prism 9.

[4] = tested on: 5-FU-resistant PANC-1 cells; experiment: Clonability assay in 5-FU-resistant PANC-1 cells; assay type: cell-based; settings: 8.35 μM 19-S or 6.5 μM 5-FU, 21 days
Experimental: 500 PANC- 1 cells resistant to 6.5 µM 5-FU cells were seeded in 6 well plates by triplicate in media
After 21 days, cells were washed with PBS, fixed with Methanol for 20 minutes and stained with
1% Crystal violet (in PBS) for 20 minutes. After extensive washing, plates were let dry and colonies
were counted and plotted in GraphPad Prism 9. Images were taken using scanner Epson Perfection

[5] = tested on: Luc-PANC-1 xenograft tumors; experiment: Luc-PANC-1 subcutaneous xenograft tumor model; assay type: in vivo; settings: 19-S vs 5-FU comparison, Supplemental Figure 6
Excerpt: (§2) In the subcutaneous tumor model, the resulting Luc-PANC-1 xenograft tumors were monitored by direct tumor measurements and bioluminescence photon flux that is proportional to tumor size. […] Treatment was initiated 30 days after Luc-PANC-1 cell line subcutaneous injections (5 × 10^6 cells), when tumors reached 100 mm^3 in volume, generating a bioluminescence photon flux of 3 × 10^9 to 4 × 10^9 photons/s. […] Tumors from both treatment groups were excised, and the tumor mass was weighed (Figure 2E).
Luc-PANC-1 (5 × 10^6) and Luc-CM (0.5 × 10^6) cells were resuspended in 200 μL of PBS and injected subcutaneously or IP, respectively, into 6- to 8-week-old NSG mice. Tumor-bearing mice were imaged using Xenogen IVIS Lumina Bioluminescence Imaging System (PerkinElmer) every week after cell injection. […] For all animals, body weight was recorded weekly, and Luc-PANC-1 tumor volume was measured weekly with a caliper. For scheduled sacrifice experiments, animals were euthanized after 4 weeks of treatment. […] Tumor volume was calculated as volume = 0.52(length × width^2).
Prior to bioluminescence imaging the region where tumors were located was shaved. […] Following the injection of the D-luciferin substrate mice, were imaged using the Xenogen IVIS Lumina Bioluminescence Imaging System (PerkinElmer). The peak of luciferase photon flux was recorded 6 minutes after injection of the D-luciferin substrate. The total photon flux was analyzed and restricted to tumor region of interest using Living Image v2.60.1 software (Imaging Systems).

TYMS [6] = experiment: TYMS levels in Luc-PANC-1 xenograft tumors (immunoblot); assay type: in vivo, mouse; settings: 25 mg/kg daily IP, 5 consecutive days
Excerpt: as §2
A small piece of frozen tumor (stored at -80 °C) in RIPA buffer with phosphatase and proteinase inhibitors (Santa Cruz, sc-24948) was homogenized using Omni general laboratory homogenizer (GLH). Tumor was then centrifuged for 20 min at 12000 rpm and 4 °C to obtain whole -cell lysates that was transferred to a new tube. Protein concentration was measured using Bradford Assay and 20 µg of total protein lysate was loaded as described in Methods.
Tritium based TYMS catalytic activity assay
The catalytic activity of TYMS was determined by measuring the release of [3H] from [5-3H]dUMP (ViTrax, Cat # VT122) resulting from the conversion of dUMP to dTMP as previously described (2, 3).
The reaction conditions were optimized to determine the amount of TYMS protein needed to establish […]

in vivo [7] = settings: NSG, mouse, ip
Experimental: Maximum tolerated dose (MTD)
(§3) experiment) or 5, 10, 25 or 50 mg/kg of 5-FU daily during 5 consecutive days. After 3 treatment cycles,
(§4) animals rested (no treatment) for one more week before euthanasia. Body weight and physical status
(§5) of all mice were closely monitored. Tissues were collected and fixed in alcoholic formalin to test for
(§6) daily during 5 consecutive days for 3 weeks. After 3 treatment cycles, animals rested (no treatment) for
(§7) one more week before euthanasia. Body weight and physical status of all mice were closely monitored.
(§8) Tissues were collected and fixed in alcoholic formalin to test for toxicity.
(§9) Specimens were fixed in alcoholic formalin for 48h and then transferred to 70% ethanol, processed and
(§10) embedded in paraffin. Tissues were serially sectioned and stained by conventional H&E. Slides were

in vivo [8] = settings: FVB/129/Sv, mouse, ip
Experimental: Animals received 4 treatment cycles and were then monitored once off treatment until survival endpoint.
Maximum tolerated dose (MTD)
as §3, §4, §5, §6, §7, §8, §9, §10

O=c1[nH]cc(F)c(=O)[nH]1 [Compound 5-FU, 5-fluorouracil]
GI50 (PANC-1 cells): 15.7 µM | GI50 (MIA PaCa-2 cells): 20.4 µM | GI50 (CM cells): 14.8 µM | GI50 (BON cells): 7.47 µM | IC50 (BON cells): 7.1 µM | GI50 [1]: 3.63 µM | TYMS protein expression after treatment (TYMS [2]): 3 fold | Effect on cell counts after 1 week [3]: potent cytotoxic effect | Viable cells after 4 weeks of treatment [3]: remained detectible | Colony formation [4]: colonies were observed | Tumor volume compared with control mice [5]: significant reduction in tumor volume | TYMS protein level in tumors (TYMS [6]): higher than TYMS protein level in vehicle-treated controls | MTD at 3 treatment cycles (5 consecutive days of daily dosing each) (in vivo [7]): 25 mg/kg | MTD at 3 treatment cycles (5 consecutive days of daily dosing each) (in vivo [8]): 25 mg/kg
